Laboratory results published in patent US20240373851A1, “PEST CONTROL COMPOSITION AND PEST CONTROL METHOD” (SUMITOMO CHEMICAL COMPANY, LIMITED, priority 2021, published 2024).

Legend:
Format in all cases: in vivo
[1] = tested on: German cockroaches (Blattella germanica); test: Test Example 6: control test against German cockroaches, spray in chamber; details: adult German cockroaches; 1.5 mL sprayed; concentration [%]: isocycloseram 0.05, imiprothrin 0.01, lambda-cyhalothrin 0.0025, alone or mixed; 60 minutes after spraying
Protocol: (§1) Next, the usefulness of the inventive composition for controlling pests will be indicated by Test Examples. In general, the control effect to be expected when treated with a mixture obtained by mixing given two or three types of active ingredient compounds is determined by the Colby's calculation equation represented by the following [Equation 1] and [Equation 2].
(§2) [formula] • P: moribund and mortal rates (%) when treated with an active ingredient compound X in the concentration of m [ppm] • Q: moribund and mortal rates (%) when treated with an active ingredient compound Y in the concentration of n [ppm] • EA: moribund and mortal rates (%) when treated with an active ingredient compound X in the concentration of m [ppm] and an active ingredient compound Y in the concentration of n [ppm] (hereinafter referred to as expected value A) […]
(§3) Regarding the synergistic effect of three types of the active ingredient compounds, in case where the moribund and mortal rates (%) when actually treated with a mixture obtained by mixing three types of the active ingredient compounds exceed the expected value A calculated by using the moribund and mortal rates (%) when actually treated with a mixture obtained by mixing two types of the active ingredient compounds among three types thereof, and the moribund and mortal rates (%) calculated when actually treated the remaining one type of the active ingredient compound, or the expected value B (%) calculated from the moribund and mortal rates (%) when actually treated with each of three types of the active ingredient compounds alone, it was determined that the synergistic effect exists. […]

[2] = tested on: German cockroaches (Blattella germanica); test: Test Example 4: control test against German cockroaches, spray in chamber; details: adult German cockroaches; 1.5 mL sprayed; concentration [%]: nicofluprole 0.01, imiprothrin 0.01, deltamethrin 0.0002, alone or mixed; 45 minutes after spraying
Protocol: as §1, §2, §3

[3] = tested on: German cockroaches (Blattella germanica); test: Test Example 5: control test against German cockroaches, spray in chamber; details: adult German cockroaches; 1.5 mL sprayed; concentration [%]: nicofluprole 0.01, imiprothrin 0.01, cyfluthrin 0.0002, alone or mixed; 45 minutes after spraying
From the text: Next, the usefulness of the inventive composition for controlling pests will be indicated by Test Examples.
(hereinafter referred to as expected value A)
(hereinafter referred to as expected value B)
In a plastic cup (diameter: 12.4 cm, height: 10.2 cm) lined with a filter paper, ten adult German cockroaches (Blattella germanica) (five males and five females each) […] were released, and the plastic cup was placed in the center of the bottom of a box-shaped chamber (46 cm×46 cm×70 cm in height). From the height of 60 cm, 1.5 mL of each of formulations prepared by dissolving a single agent of any one of nicofluprole, imiprothrin and cyfluthrin, or a mixed agent of two or more thereof in a mixture of isopropyl alcohol and Isopar M at a mixing ratio of 1:9 was sprayed under a spray pressure of 0.041 MPa. After a lapse of 45 minutes from spraying, the number of dead and moribund individuals was examined, and moribund and mortal rates (%) were determined by the above equation 3. The test was performed through two replicates. Dead individuals are completely immobile individuals, and moribund individuals are individuals who cannot get up when turned on their backs.

[4] = tested on: German cockroaches (Blattella germanica); test: Test Example 8: control test against German cockroaches, spray in chamber; details: adult German cockroaches; 1.5 mL sprayed; concentration [%]: nicofluprole 0.01, imiprothrin 0.01, phenothrin 0.1, alone or mixed; 45 minutes after spraying
Protocol: as §1, §2, §3

C#CCN1CC(=O)N(COC(=O)[C@@H]2C(C=C(C)C)C2(C)C)C1=O (mixture of isomers) [Imiprothrin, imiprothrin]
Moribund and mortal rates [%] after 60 minutes [1]: 25% | Moribund and mortal rates [%] after 45 minutes [2]: 65% | Moribund and mortal rates [%] after 45 minutes [3]: 65% | Moribund and mortal rates [%] after 45 minutes [4]: 65%
